# From ChEMBL document CHEMBL1151005 (Bioorg Med Chem Lett, 1995)
# Biological target: Human immunodeficiency virus type 1 reverse transcriptase (Human immunodeficiency virus 1, UniProt Q72547)
# Assay: Inhibitory activity against HIV-1 Reverse transcriptase (RT) was determined
row,IC50,Structure (SMILES)
1,0.35 µM,CCN1c2cnccc2N(C)C(=O)c2cccnc21
2,1.6 µM,CCN1c2ccncc2N(C)C(=O)c2cccnc21
3,6.4 µM,CCN1c2cnccc2C(=O)N(C)c2cccnc21
